Consider three compounds from patent US4366158A, “1-(8-Quinolyl)-2-pyrrolidone and its pharmaceutical compositions” (Burroughs Wellcome Co., priority 1979, dated 1982).

Molecules are shown by their SMILES. Like-named read-outs stand apart in the source and are kept apart here.

Data set [1] is described as follows: acetic acid writhing assays (species not stated). In kind it is in vivo. Conditions: in words.
Data set [2] deals with rat. The data set is classed as in vivo.
The test system of data set [3] is rat. Nature of the data set: Carrageenin Pleurisy Assay (CPA), 3 hour exudate volume. In kind it is in vivo. Conditions: for ED50: po, read-out: ED50, 3 hr. Vol.
Data set [4] concerns rat. Nature of the data set: Carrageenin Pleurisy Assay (CPA), mobilized neutrophils at 3 hours. The data set is classed as in vivo. Conditions: Neutrophil, po, read-out: ED50, 3 hr. Cells. The method, then:
Following the procedure described by Vinegar et al. in Proc Soc Exp Biol Med 151, 556, (1976), the acute anti-inflammatory activity of the compound of formula (I) was compared with that of known anti-inflammatory drugs in the rat. Two assays were performed: in the first, the average 3 hour exudate volume for each drug-treated group was determined and the % inhibition relative to solvent-fed control animals calculated, the ED50 being the dose required to reduce the 3 hour exudate volume by 50%; in the second, the number of mobilized neutrophils was quantified and the % inhibition relative to solvent-fed control animals calculated, the ED50 being the dose required to reduce the number of neutrophils mobilized at 3 hours by 50%.

Data set [5] deals with mouse. Nature of the data set: Acetic Acid Writhing Test (AAWT), mouse. In kind it is in vivo. The conditions noted are these: po. The text has this:
(§1) Using the procedure described by Koster et al. in Fed. […] 26, Anti-inflammatory Drugs, Ed.
In general terms: An intraperitoneal irritant provokes the stretching counted in writhing tests.

Data set [6] concerns rat. Nature of the data set: Carrageenin Hindlimb Oedema Assay (CHOA). In kind it is in vivo. (The carrageenan paw model is a standard test of acute inflammation.)
The subject of data set [7] is rat. Nature of the data set: Trypsin Hyperalgesic Assay (Modified THA). In kind it is in vivo. The conditions noted are these: po. The method, then: (§2) The analgesic agents were administered 30 minutes after the administration of trypsin. In addition, a modification of Vinegar's published assay was carried out, comprising the administration of the analgesic agent preceding subplantar injection of trypsin (0.10 ml of 10% solution of trypsin in pyrogen-free water) by 15 minutes. In both THA's, pain scores were determined 60 minutes after trypsin injection.

In data set [8] the test system is rat. Nature of the data set: Yeast-Induced Hyperthermia Assay. The data set is classed as in vivo. The conditions noted are these: for ED50: po; for antipyretic and hypothermic activity: rat. The text has this: The Yeast-Induced Hyperthermia Assay was used according to the procedure described by Khalili-Varasteh et al. in Arch. Int. Pharmacodyn.
For data set [9], the system named is rat. Nature of the data set: Trypsin Hyperalgesic Assay (Published THA). The data set is classed as in vivo. The conditions noted are these: for ED50: po, 0.5 h. How it is done: as §2
The nature of data set [10]: Toxicity Test. Conditions: rat, in vivo, po. The method, then: Four non-fasted male rats of 160-250 gram body weight was used for each dose level. The compound to be tested was administered by the indicated route and the symptom onset time, the intensity of the effect and the duration during a 4 hour observation period were recorded. The LD50 estimation was based on a 7 day observation and was determined by the method of Miller and Tainter (Proc. Soc. Exp. Biol. Med. 57, 261 (1944)).

For data set [11], the system named is rat. Nature of the data set: Acetic Acid Writhing Test (AAWT), rat. In kind it is in vivo. Conditions: po.
Excerpt: as §1

The test system of data set [12] is prostaglandin cyclooxygenase. Nature of the data set: inhibition of prostaglandin cyclooxygenase. In kind it is biochemical.
The test system of data set [13] is brain. Nature of the data set: analgesic activity when injected directly into the brain. In kind it is in vivo.
Data set [14] relates to peroxidase. Nature of the data set: inhibition of peroxidase. In kind it is biochemical.
In data set [15] the test system is morphine receptor. Nature of the data set: binding to the morphine receptor.
Data set [16] in a line: inhibition of analgesic activity by naloxone. In kind it is in vivo.
For data set [17], the system named is rat. Nature of the data set: anti-inflammatory action in the rat, in words (carrageenin pleurisy and carrageenin hindlimb oedema assays). The data set is classed as in vivo.
In data set [18] the test system is lipoxygenase. Nature of the data set: inhibition of lipoxygenase. In kind it is biochemical.
A short description of data set [19]: solubility of the base. The data set is classed as physicochemical.
Setting [20] is: male rats, 7 day observation, method of Miller and Tainter, read-out: LD50.
Setting [21] is: CPA, 3 hour exudate volume reduced by 50%, rat, p.o.
Setting [22] is: CPA, neutrophils mobilized at 3 hours reduced by 50%, rat, p.o.
Setting [23] is: Modified THA, rat, p.o., agent 15 minutes before trypsin, read-out: ED50.
Where [24] appears, read: Rat Yeast Hyperthermia, p.o., read-out: ED50.
The mark [25] stands for this setting: Published THA, rat, p.o., agent 30 minutes after trypsin, read-out: ED50.
Where [26] appears, read: AAWT, rat, p.o., read-out: ED50.

As a reminder, the ED50 is the dose at which the effect has come halfway, by size or by number of responders. As a reminder, the LD50 is the dose expected to kill half of the subjects tested. Regarding `CC(=O)Oc1ccccc1C(=O)O` [Aspirin], in data set [1], the “activity in the former (acetic acid writhing) assay” value is “inactive in the former assay”. The gastric damage entry in data set [2] (single oral dose of 30 mg/kg) is “produces ulcers and haemorrhages”. In addition, the ED50 in [3] (Rattus norvegicus, 3 h) is 28 ± 3.2 mg/kg; in data set [4] (Rattus norvegicus, 3 h), 75 ± 7.5 mg/kg; in [5] (Mus musculus), 137 ± 16.9 mg/kg; in data set [6] (Rattus norvegicus), 145 ± 74 mg/kg; in data set [7] (Rattus norvegicus), over 180 mg/kg; in [8], 50 ± 8.1 mg/kg. Moreover, the figures for the ED50 in data set [9] (Rattus norvegicus) and in data set [11] (Rattus norvegicus) were over 180 mg/kg and 21 ± 3.4 mg/kg, respectively. In addition, the NOAEL at 4 h in [10] (male rats, 4 hour observation, read-out: No symptom dose) was determined as 10 mg/kg. Moreover, in data set [10] (setting [20]), the LD50 at 168 h is 1610 mg/kg.

As usually defined, the solubility is the concentration that dissolves in the medium under given conditions. Consider `O=C1CCCN1c1cccc2cccnc12` [Compound of Formula (I), 1-(8-quinolyl)-2-pyrrolidinone], for which the “inhibition of prostaglandin cyclooxygenase” value in data set [12] is reported as “does not inhibit”. Moreover, the “analgesic activity on injection into the brain” value in data set [13] was “inactive when injected directly into the brain”. For the same compound, the gastric damage entry in data set [2] (rat, 5 days of oral dosing at 40 mg/kg) is listed as “does not produce gastric damage”; in data set [2] (rat, single oral dose of 200 mg/kg) it was “does not produce gastric damage”. Besides, in data set [3] (CPA, 80 mg/kg (p.o.)), the “duration of acute anti-inflammatory activity (time of drug administration prior to carrageenin in which inhibition of 3 hour pleural exudate volume declined to 40%)” value stood at 9 h. The median effective dose (ED50) in [3] (setting [21]) was found to be 20 ± 4.3 mg/kg; in [4] (setting [22]) it was 37 ± 10.4 mg/kg; in data set [5] (AAWT, mouse, p.o., read-out: ED50), 99 ± 9.8 mg/kg; in [6] (CHOA, rat, read-out: ED50), 54 ± 31.6 mg/kg; in [7] (setting [23]), 13 ± 1.8 mg/kg; in data set [8] (setting [24]) it was 22 ± 3.9 mg/kg. Further, the results for the median effective dose (ED50) in data set [9] (setting [25]) and in data set [11] (setting [26]) were 37 ± 7.8 mg/kg and 22 ± 2.1 mg/kg, respectively. In addition, in data set [14], the inhibition of peroxidase result was “does not inhibit”. Moreover, in data set [15], the “binding to the morphine receptor” value is listed as “does not appreciably bind to the morphine receptor”. The “inhibition of analgesic activity by naloxone” value in data set [16] is recorded as “not inhibited by naloxone”. Besides, the anti-inflammatory activity result in [17] (rat) is “potent, long-lasting acute anti-inflammatory activity”. For the same compound, the “anti-inflammatory effect compared with acetaminophen” value in data set [17] (versus acetaminophen) is “more potent and to have a longer lasting anti-inflammatory effect”. Moreover, in [18], the inhibition of lipoxygenase result is recorded as “does not inhibit”. Further, the “effect on body temperature of rats with a normal temperature” value in data set [8] (in words, higher dose levels) is recorded as “lowers the body temperature of rats”. Besides, in [8] (in words), the “antipyretic and hypothermic activity” value was “antipyretic and hypothermic activity”. Besides, the “duration of analgesic activity (time of drug administration prior to trypsin in which inhibition of hyperalgesia declined to 40%)” value in data set [9] (published THA, 75 mg/kg (p.o.)) amounted to 10.8 h. Also, the solubility in data set [19] (in 0.1 N HCl) and in data set [19] (in water) was over 50 mg/mL throughout. Moreover, the NOAEL at 4 h in [10] was found to be 250 mg/kg. The LD50 at 168 h in data set [10] (setting [20]) turned out to be 1650 mg/kg.

As to `CC(=O)Nc1ccc(O)cc1` [Acetaminophen], in data set [3] (CPA, 220 mg/kg (p.o.)), the “duration of acute anti-inflammatory activity (time of drug administration prior to carrageenin in which inhibition of 3 hour pleural exudate volume declined to 40%)” value is on record as “over 2 hours”. The ED50 in [3] (setting [21]) was 172 ± 22.4 mg/kg; in data set [4] (setting [22]), 189 ± 48.6 mg/kg; in data set [7] (setting [23]), 95 ± 17.2 mg/kg; in data set [8] (setting [24]) it was 72 ± 8.6 mg/kg; in [9] (setting [25]), 360 mg/kg; in data set [11] (setting [26]), 127 ± 16.6 mg/kg. Also, the “antipyretic and hypothermic activity” value in data set [8] (in words) was “antipyretic and hypothermic activity”. For the same compound, in data set [10], the LD50 at 168 h was found to be 2000 mg/kg. The same compound came in with an NOAEL at 4 h in [10] of 250 mg/kg.
